Assays:
[1] = test system: adults with ADHD; assay: Study A: ABT-894 Adult ADHD Dose-Ranging crossover clinical study, efficacy rating scales; format: in vivo, human
Method: (§1) A clinical study (Study A) was conducted to assess the safety and efficacy of ABT-894 compared to placebo in adults with ADHD and to evaluate the dose-response relationship.
A total of 243 subjects aged 18 to 60 years old meeting DSM-IV-TR criteria for ADHD were randomized across the 5 dose groups. Male or female patients were included. […] The disposition of the study subjects is further discussed with the study results below.
(§2) Subjects in each dose group received, in random order, both ABT-894 and placebo according to a 2×2 crossover design. Each treatment period was 4 weeks separated by a 2-week washout period.
Each site was assigned to one of two cohorts (Cohort A or Cohort B) in approximately a 3:2 ratio. Subjects in Cohort A were randomized in equal proportions to one of 6 treatment sequences in 3 dose groups, and subjects in Cohort B were randomized in equal proportions to one of 4 treatment sequences in 2 dose groups, as shown in Table 1. Within each dose group subjects received either ABT-894 or atomoxetine in Period 1 and placebo in Period 2, or placebo in Period 1 and ABT-894 or atomoxetine in Period 2.
The study medication was dispensed in the form of a capsule. Each capsule contained ABT-894, atomoxetine, or placebo. The capsules were made to look identical.
The primary efficacy endpoint was the Conners' Adult ADHD Rating Scale—Investigator Rated (CAARS:Inv) Total Score (18 items) at the final evaluation of each 4-week treatment period. The CAARS:Inv was assessed at baseline and Days 7. 14. 21, and 28 of each period. Each CAARS:Inv item was rated on a 4-point scale of frequency of occurrence (0=not at all, never; 3=very much. very frequently) during the previous 7 days.
(§3) Secondary efficacy endpoints included the CAARS:Inv Inattentive and Hyperactive/Impulsive Subscale Scores, Clinical Global Impression-ADHD-Severity Scale (CGI-ADHD-S). Adult ADHD Investigator Symptom Report Scale (AISRS), including total and subscales, and the Self-rated Connors Adult ADHD Rating Scale (CAARS-Self). Health outcomes including the Adult ADHD Quality of Life Scale (AAQoL) and Work Productivity and Activity Impairment Questionnaire (WPAI) were used to evaluate the validity of these scales in this study population for use in subsequent clinical trials.
The primary analysis was performed on each dose group separately according to the Statistical Analysis Plan (SAP). The primary statistical model that was used for analyzing the primary efficacy variable, the CAARS:INV total score, and all other secondary efficacy variables was determined by a SAP specified testing procedure. The comparability between two sequences for a given dose group with respect to the difference between period-specific baselines was tested using a one-way ANCOVA with the term of treatment and the Period I baseline as the covariate at the significance level of 0.10. The equal residual effect from Period I to Period II between two different sequences for a given dose group was tested using a standard model for cross-over data analysis, Grizzle model, on the term of “sequence” at the significance level of 0.10.
After the study blind was broken, across 5 dose groups. all the tests accepted the null hypothesis that there was no statistically significant treatment effect for the differences between the period-specific baselines. The tests also accepted the null hypothesis that there was no period residual effect in any of the dose groups. Accordingly, the Grizzle model was used as the primary analysis model to analyze treatment group difference for CAARS:INV total score at Day 28 for each dose group. The Grizzle Model was carried out by SAS PROC Mixed with the terms of study center. sequence, subjects within sequence, period, treatment, as well as period-specific baselines as covariates.
The primary efficacy dataset included all subjects who completed both periods of the study (completers dataset). […]

[2] = test system: adults with ADHD; assay: Study A: patient-reported health outcomes (AAQoL, WPAI); format: in vivo, human; design: WPAI Absenteeism (employed), Mean Diff. / WPAI Impaired Work Effectiveness (employed), Mean Diff. / AAQoL Total, Mean Diff. / WPAI Overall Activity Impairment (all), Mean Diff. / WPAI Overall Work Impairment (employed), Mean Diff.: scale not given here
Method: as §1, §2, §3

[3] = ABT-894 1 mg QD, day 28, completers N = 40
[4] = ABT-894 2 mg QD, day 28, completers N = 37
[5] = ABT-894 4 mg BID, day 28, completers N = 43
[6] = ABT-894 4 mg QD, day 28, completers N = 36

Clc1cc(N2C[C@@H]3CN[C@@H]3C2)cnc1Cl [ABT-894, 3-(5,6-Dichloro-pyridin-3-yl)-1S,5S-3,6-diazabicyclo[3.2.0]heptane]
AISRS Hyperactivity Score, mean difference from placebo [1, 3]: 1.53 (−0.8, 3.8) | AISRS Inattention Score, mean difference from placebo [1, 3]: 1.72 (−0.6, 4.1) | AISRS Total Score, mean difference from placebo [1, 3]: 3.19 (−1.2, 7.6) | CAARS:Inv ADHD Index, mean difference from placebo [1, 3]: 1.84 (−0.0. 3.7) | CAARS:Inv Hyperactive/Impulsive subscale score, mean difference from placebo [1, 3]: 0.93 (−0.2, 2.0) | CAARS:Inv Inattentive subscale score, mean difference from placebo [1, 3]: 0.94 (−1.5, 3.4) | CAARS:Inv Total Score, mean difference from placebo [1, 3]: 2.11 (−2.4, 6.6) | CAARS:Self ADHD Index, mean difference from placebo [1, 3]: 2.04 (0.2, 3.9) | CAARS:Self Hyperactivity Score, mean difference from placebo [1, 3]: 0.68 (−0.4, 1.8) | CAARS:Self Impulsivity Score, mean difference from placebo [1, 3]: 0.65 (−0.1, 1.4) | CAARS:Self Inattention/Memory Score, mean difference from placebo [1, 3]: 0.60 (−0.5, 1.7) | CAARS:Self Problem with Self-concept Score, mean difference from placebo [1, 3]: 0.51 (−0.2, 1.2) | CAARS:Self Total Score, mean difference from placebo [1, 3]: 3.57 (−0.4, 7.5) | CGI-ADHD-S, mean difference from placebo [1, 3]: 0.04 (−0.3, 0.4) | Measures of sustained attention, inhibitory control, and executive function ([1]; ABT-894 2 mg QD): improved measures of sustained attention, inhibitory control, and executive function | AISRS Hyperactivity Score, mean difference from placebo [1, 4]: −1.11 (−3.0, 0.7) | AISRS Inattention Score, mean difference from placebo [1, 4]: −1.59 (−3.6, 0.4) | AISRS Total Score, mean difference from placebo [1, 4]: −2.72 (−6.4, 1.0) | CAARS:Inv ADHD Index, mean difference from placebo [1, 4]: −1.52 (−3.3, 0.2) | CAARS:Inv Hyperactive/Impulsive subscale score, mean difference from placebo [1, 4]: −0.55 (−1.4, 0.3) | CAARS:Inv Inattentive subscale score, mean difference from placebo [1, 4]: −1.92 (−3.8, −0.1) | CAARS:Inv Total Score, mean difference from placebo [1, 4]: −3.18 (6.7,0.3) | CAARS:Self ADHD Index, mean difference from placebo [1, 4]: −1.50 (−3.3, 0.3) | CAARS:Self Hyperactivity Score, mean difference from placebo [1, 4]: −0.57 (−1.4, 0.3) | CAARS:Self Impulsivity Score, mean difference from placebo [1, 4]: −0.48 (−1.3, 0.3) | CAARS:Self Inattention/Memory Score, mean difference from placebo [1, 4]: −0.23 (−1.2, 0.8) | CAARS:Self Problem with Self-concept Score, mean difference from placebo [1, 4]: −0.57 (−1.6, 0.5) | CAARS:Self Total Score, mean difference from placebo [1, 4]: −2.64 (−6.6, 1.3) | CGI-ADHD-S, mean difference from placebo [1, 4]: −0.31 (−0.6, 0.0) | Efficacy measures compared with atomoxetine ([1]; ABT-894 4 mg BID vs atomoxetine): comparable across efficacy measures | AISRS Hyperactivity Score, mean difference from placebo [1, 5]: −3.58 (−5.6, −1.6) | AISRS Inattention Score, mean difference from placebo [1, 5]: −4.26 (−6.6, −1.9) | AISRS Total Score, mean difference from placebo [1, 5]: −8.07 (−12.2, −3.9) | CAARS:Inv ADHD Index, mean difference from placebo [1, 5]: −3.37 (−5.3. −1.4) | CAARS:Inv Hyperactive/Impulsive subscale score, mean difference from placebo [1, 5]: −1.90 (−3.0, −0.8) | CAARS:Inv Inattentive subscale score, mean difference from placebo [1, 5]: −4.08 (−6.4, −1.7) | CAARS:Self ADHD Index, mean difference from placebo [1, 5]: −3.31 (−5.2, −1.4) | CAARS:Self Hyperactivity Score, mean difference from placebo [1, 5]: −1.74 (−2.9, −0.6) | CAARS:Self Impulsivity Score, mean difference from placebo [1, 5]: −0.70 (−1.4, −0.0) | CAARS:Self Inattention/Memory Score, mean difference from placebo [1, 5]: −1.40 (−2.5, −0.3) | CAARS:Self Problem with Self-concept Score, mean difference from placebo [1, 5]: −1.39 (−2.5, −0.3) | CAARS:Self Total Score, mean difference from placebo [1, 5]: −7.34 (−11.6, −3.1) | CGI-ADHD-S, mean difference from placebo [1, 5]: −0.58 (−1.0, −0.2) | AISRS Hyperactivity Score, mean difference from placebo [1, 6]: −0.81 (−2.6, 1.0) | AISRS Inattention Score, mean difference from placebo [1, 6]: 0.81 (−1.2, 2.8) | AISRS Total Score, mean difference from placebo [1, 6]: −0.13 (−3.6, 3.4) | CAARS:Inv ADHD Index, mean difference from placebo [1, 6]: −0.12 (−1.8, 1.5) | CAARS:Inv Hyperactive/Impulsive subscale score, mean difference from placebo [1, 6]: −1.07 (−2.1, −0.0) | CAARS:Inv Inattentive subscale score, mean difference from placebo [1, 6]: 0.60 (−1.5, 2.7) | CAARS:Inv Total Score, mean difference from placebo [1, 6]: 0.23 (−3.2, 3.7) | CAARS:Self ADHD Index, mean difference from placebo [1, 6]: −0.19 (−1.9, 1.5) | CAARS:Self Hyperactivity Score, mean difference from placebo [1, 6]: −0.78 (−1.8, 0.2) | CAARS:Self Impulsivity Score, mean difference from placebo [1, 6]: −0.02 (−0.9, 0.9) | CAARS:Self Inattention/Memory Score, mean difference from placebo [1, 6]: 0.11 (−0.9, 1.2) | CAARS:Self Problem with Self-concept Score, mean difference from placebo [1, 6]: 0.33 (−0.7, 1.4) | CAARS:Self Total Score, mean difference from placebo [1, 6]: −1.13 (−5.2, 2.9) | CGI-ADHD-S, mean difference from placebo [1, 6]: −0.06 (−0.3, 0.2) | Efficacy in the treatment of the core symptoms of ADHD ([1]; human patients, compared to placebo): statistically significant efficacy compared to placebo | Measures of quality of life relative to placebo ([2]; ABT-894 2 mg QD): improved measures of quality of life relative to placebo | WPAI Impaired Work Effectiveness (employed), Mean Diff. ([2]; ABT-894 4 mg BID, N 22): −0.104 | WPAI Overall Work Impairment (employed), Mean Diff. ([2]; ABT-894 4 mg BID, N 22): −0.093 | WPAI Overall Activity Impairment (all), Mean Diff. ([2]; ABT-894 4 mg BID, N 43): −0.108
